Test results published in patent publication US10000791B2, “Measurement method for human pancreatic lipase activity” (ASAHI KASEI PHARMA CORPORATION, priority 2013, dated 2018).

Assays:
Assay type in all cases: biochemical
human pancreatic lipase [1] = experiment: pH dependence of human pancreatic lipase activity in the presence of bile acids (diglyceride substrate, UV method); settings: human pooled serum; pH changed between 7.4 and 8.4 (Example 12)
Target sequence in this assay (P16233 17-465): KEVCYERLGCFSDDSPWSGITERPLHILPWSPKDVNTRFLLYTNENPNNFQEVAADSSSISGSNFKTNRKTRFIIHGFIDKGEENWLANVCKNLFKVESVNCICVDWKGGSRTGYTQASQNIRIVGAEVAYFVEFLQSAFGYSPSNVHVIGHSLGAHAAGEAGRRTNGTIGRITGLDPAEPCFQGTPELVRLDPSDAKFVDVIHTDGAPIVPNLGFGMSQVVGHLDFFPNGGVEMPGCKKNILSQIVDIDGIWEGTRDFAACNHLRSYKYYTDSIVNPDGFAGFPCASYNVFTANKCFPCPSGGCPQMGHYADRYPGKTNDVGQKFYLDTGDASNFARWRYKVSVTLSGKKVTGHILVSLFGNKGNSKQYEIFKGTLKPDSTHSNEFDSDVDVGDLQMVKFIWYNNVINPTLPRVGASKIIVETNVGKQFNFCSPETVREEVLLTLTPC
Target sequence in this assay (P02703 23-112 partner): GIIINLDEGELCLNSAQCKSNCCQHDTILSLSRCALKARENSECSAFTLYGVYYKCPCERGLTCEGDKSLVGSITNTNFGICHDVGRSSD

human pancreatic lipase [2] = experiment: lipase activity measured in control, normal and heparin-administered samples with each reagent (1,2-dioleoyl glycerol, UV method; Liquitech Lipase Color II for verification); settings: NaDCA pH 8.15, other bile salts pH 7.0
Method: (§1) A mixture of the substrate stock solution and the R-1 in a proportion of 1:2 was used as a first reagent. The R-2 was directly used as a second reagent. As a sample, pooled serum or a control sample (a control containing a pancreatic lipase) was used. A proportion in amount among the sample, the first reagent and the second reagent was set as sample:first reagent:second reagent of 0.01 ml:0.18 ml:0.06 ml. The sample was added to the first reagent, the resultant mixture was heated at 37° C. for 5 minutes, the second reagent was added thereto, and a change rate of an absorbance at 340 nm based on reduced NADP was obtained at 37° C. from 3 minutes after the addition of the second reagent to 4 minutes after the addition, and then, the lipase activity was calculated by using a molecular extinction coefficient of 6300 L/mol·cm of the reduced NADP. Besides, as a sample blank, saline was used instead of a sample, an absorbance was measured by using the reagent for sample blank obtained by removing MGLPII from the second reagent, and a difference between the thus measured two values was defined as an enzyme activity value. For the measurement, Hitachi automatic analyzer Model H7170 or H7080 was used.
(§2) Similarly to Example 1, a mixture of the substrate stock solution and the R-1 in a proportion of 1:2 was used as a first reagent. Except for this, the measurement was performed in the same manner as in Example 1.
A commercially available reagent for a resorufin colorimetric method, “Liquitech Lipase Color II” manufactured by Roche Diagnostics using 1,2-O-dilauryl-rac-glycerol-3-glutaric acid-(6-methylresorufin)ester (DGGR), which is regarded not to be influenced by a non-pancreatic lipase, such as a lipoprotein lipase or a hepatic lipase, appearing in blood due to administration of heparin, was used for verifying the effect of the present example. “Liquitech Lipase Color II” was used in accordance with the package insert, and a special calibrator was used for calculating the enzyme activity. […] The concentration of each bile acid used in the present example was set to be the same as that in the comparative example.
As samples, a control, non-heparin-administered samples (normal samples), and heparin-administered samples were used.
The compositions of the reagents were the same as those of Example 2. As a comparative example, NaDCA (in a concentration of 40 mmol/L in the R-1) was used as the bile acid, and the reaction solution was adjusted to pH 8.15 (by the Bicine buffer) for measuring a heparin-administered sample.
It is noted that CRM-001b containing a human pancreatic recombinant lipase dissolved not in distilled water but in a pooled serum was used as the calibrator to calculate the lipase activity.
As a bile acid of the present example and a reference example, NaTDCA was selected, and the pH dependence with the pH of a reaction solution changed in a range of 6.2 to 7.6 was examined. It is noted that a case of pH 7.6 was used as the reference example. An MES buffer was used for adjusting pH to 6.2 and 6.4, and the BES buffer was used for adjusting the other pHs. As samples, (six) control samples (controls each containing a pancreatic lipase) and (nine) heparin-administered samples were used. As a comparative example, NaDCA (in a concentration of 40 mmol/L in the R-1) was used as the bile acid, and a reaction solution having pH 8.15 (the Bicine buffer) was used. Besides, “Liquitech Lipase Color II” manufactured by Roche Diagnostics was used for verifying the effect of the present example.

human pancreatic lipase [3] = experiment: pH dependence of human pancreatic lipase activity in the presence of bile acids (diglyceride substrate, UV method); settings: pooled serum; non-conjugated bile acid singly, 24 mmol/L in R-1; pH 7.2-8.5
Method: After weighing 1,2-dioleoyl glycerol (DODG) (manufactured by Nippon Fine Chemical Co., Ltd.) to attain a concentration of 9.32 mmol/L when dissolved, 1% polyoxyethylene (10) nonyl phenyl ether (NPE) (manufactured by Wako Pure Chemical Industries Ltd.) containing 1.66 mmol/L of MES (manufactured by Dojindo Laboratories) was added thereto to be dissolved therein by stirring at 37° C. for 2 hours, and the resultant was allowed to stand still in ice for 2 hours or more. The thus obtained solution was used as a substrate original liquid.
The above-described diglyceride original liquid was used for preparing a “substrate stock solution” having the following composition:
A “first reaction solution (R-1)” having the following composition was prepared:
A “second reaction solution (R-2)” having the following composition was prepared:
A “second reaction solution (R-2) for sample blank” having the following composition was prepared:
as §1
Target sequence in this assay (P16233 17-465): as the sequence (P16233 17-465) above
Target sequence in this assay (P02703 23-112 partner): as the sequence (P02703 23-112 partner) above
As a conjugated bile acid to be added to the R-1, sodium taurodeoxycholate (NaTDCA), sodium glycodeoxycholate (NaGDCA), sodium glycochenodeoxycholate (NaGCDCA), sodium taurochenodeoxycholate (NaTCDCA), sodium glycocholate (NaGCA), sodium taurocholate (NaTCA) and sodium tauroursodeoxycholate (NaTUDCA) all in a concentration of 40 mmol/L were selected, the R-1 was adjusted, by using BES (manufactured by Dojindo Laboratories) respectively to pH 6.8, 7.0, 7.2, 7.4, 7.8, and 8.0, and the human pancreatic lipase activity was measured by using these. The pH of the R-2 was adjusted to be equal to that of the R-1.
It is noted that the concentration of each non-conjugated bile acid was set to be 24 mmol/L in the R-1. Besides, BES was used for adjusting pH to 7.2, 7.6, 7.8 and 8.0, and Bicine was used for adjusting pH to 8.2 and 8.5.
as §2
Besides, NaTCA was also combined with a conjugated bile acid, NaTDCA, to examine the pH for giving a maximum value of the human pancreatic lipase activity (the apparent optimum pH). It is noted that a BES buffer was used for adjusting pH to 6.9, 7.2 and 7.7, and a Bicine buffer was used for adjusting pH to 7.95 and 8.2. In each of the combinations of NaGCA/NaDCA, NaTCA/NaDCA, NaTUDCA/NaDCA and NaTCA/NaTDCA, the concentration of each bile acid was set to 20 mmol/L in the R-1. With respect to the combination of NaTCA and NaTDCA, a concentration of 40 mmol/L of NaTDCA was used as a control.
The compositions of the reagents and the measurement operation were the same as those of Example 2.

## sodium deoxycholate [NaDCA]
Human pancreatic lipase [1]
  pH for giving a maximum value of the human pancreatic lipase activity: about 8.2
Human pancreatic lipase [2]; Normal sample 1
  lipase activity (Table 1): 39.1 U/L
Human pancreatic lipase [2]; Normal sample 2
  lipase activity (Table 1): 95.0 U/L
Human pancreatic lipase [2]; Normal sample 3
  lipase activity (Table 1): 46.6 U/L
Human pancreatic lipase [2]; Normal sample 4
  lipase activity (Table 1): 43.5 U/L
Human pancreatic lipase [2]; Normal sample 5
  lipase activity (Table 1): 40.7 U/L
Human pancreatic lipase [2]; sample Heparin 1
  lipase activity (Table 1): 76.8 U/L
Human pancreatic lipase [2]; sample Heparin 2
  lipase activity (Table 1): 86.7 U/L
Human pancreatic lipase [2]; sample Heparin 3
  lipase activity (Table 1): 112.9 U/L
Human pancreatic lipase [2]; sample Heparin 4
  lipase activity (Table 1): 101.4 U/L
Human pancreatic lipase [2]; sample Heparin 5
  lipase activity (Table 1): 68.5 U/L
Human pancreatic lipase [2]; sample Heparin 6
  lipase activity (Table 1): 69.2 U/L
Human pancreatic lipase [2]; sample Heparin 7
  lipase activity (Table 1): 138.3 U/L
Human pancreatic lipase [2]; sample Heparin 8
  lipase activity (Table 1): 126.0 U/L
Human pancreatic lipase [2]; sample Heparin 9
  lipase activity (Table 1): 168.8 U/L
Human pancreatic lipase [2]; sample PRECINORM
  lipase activity (Table 1): 51.0 U/L
Human pancreatic lipase [2]; sample PRECIPATH
  lipase activity (Table 1): 128.0 U/L
Human pancreatic lipase [3]
  pH for giving a maximum value of the activity (apparent optimum pH): about 8.2
